Data on eleven compounds can be found in ChEMBL document CHEMBL1201862, “PubChem BioAssay data set” (2004).

SMILES strings stand for the structures.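 Assay format: 96-well plates, 48-hour exposure. At the GI50, growth is halved.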 Active and inactive are the calls of the source. Rule as the data show it: active = GI50 up to about 1.1 µM and inactive = higher.

Some test systems named below: IGROV-1; SF-539; HCT-116; SF-295; HCC 2998; K562; SK-MEL-5; A498; SK-MEL-28; NCI-H460; NCI-H226; UO-31; HCT-15.
What all share (assay): inhibition of tumour cell growth, NCI panel, 48 h

Regarding `Nc1ncnc2c1ncn2CC(O)CO` (stereo not given), the GI50 in the experiment on IGROV-1 is > 100 µM (inactive); in the experiment on SF-539 it was > 100 µM (inactive); in the experiment on HCT-116, > 100 µM (inactive); with SF-295 it was > 100 µM (inactive); with HCC 2998 it was 86.7 µM (inactive); in the experiment with K562, > 100 µM (inactive). The GI50 with SK-MEL-5, with A498, in the experiment on SK-MEL-28, in the experiment with NCI-H460, in the experiment with NCI-H226 and in the experiment with UO-31 was > 100 µM (inactive) each time. In the experiment with HCT-15, the GI50 is more than 100 µM.

As to `CC1CC(c2ccc([N+](=O)[O-])cc2)=Nc2ccccc2S1` (stereo not given), the GI50 in the experiment on IGROV-1 was 18 µM (inactive); with SF-539, 16.9 µM (inactive); in the experiment with HCT-116 it was 1.75 µM (inactive); in the experiment with SF-295, 19.1 µM (inactive); in the experiment on HCC 2998, 19.1 µM (inactive); in the experiment on K562, 6.04 µM (inactive). Further, the GI50 in the experiment with SK-MEL-5 was 21.5 µM (inactive); with A498, 19 µM (inactive); in the experiment with SK-MEL-28, 17.9 µM (inactive); with NCI-H460 it was 27.1 µM (inactive); with NCI-H226, 23.2 µM (inactive); in the experiment with UO-31 it was 11.8 µM (inactive). In addition, the GI50 in the experiment with HCT-15 is 15.4 µM.

With `N#Cc1cccc(/C=N/C23CC4CC(CC(C4)C2)C3)c1`, the GI50 in the experiment with IGROV-1 was > 100 µM (inactive); in the experiment with SF-539, > 100 µM (inactive); in the experiment with HCT-116, 57.3 µM (inactive); with SF-295 it was > 100 µM (inactive); with HCC 2998 it was > 100 µM (inactive); with K562 it was 38.4 µM (inactive). Further, the GI50 with SK-MEL-5 was > 10 µM (inactive); with A498, > 100 µM (inactive); in the experiment on SK-MEL-28, > 100 µM (inactive); in the experiment with NCI-H460, > 100 µM (inactive); in the experiment on NCI-H226, > 100 µM (inactive); with UO-31, > 100 µM (inactive). Besides, the GI50 in the experiment with HCT-15 was more than 100 µM.

As to `Cc1ccc(NS(=O)(=O)c2cc(C(C)(C)C)ccc2OCCOCCOCCOc2ccc(C(C)(C)C)cc2S(=O)(=O)Nc2ccc(C)cc2)cc1`, the GI50 in the experiment on IGROV-1, in the experiment on SF-539, with HCT-116, in the experiment on SF-295, in the experiment with HCC 2998 and with K562 was > 100 µM (inactive) each time. The GI50 in the experiment on SK-MEL-5, in the experiment on A498, with SK-MEL-28, in the experiment on NCI-H460, with NCI-H226 and in the experiment on UO-31 was > 100 µM (inactive) in each case. The compound also returned a GI50 with HCT-15 of more than 100 µM.

As for `COC1=CC23C=CC1[C@@H](c1ccccc1)C2=C(C)C(=O)N3C(=O)NC1CCCCC1` (stereo not given in full), the GI50 was 61.2 µM (inactive) with IGROV-1; 19.4 µM (inactive) in the experiment with SF-539; 15 µM (inactive) in the experiment on HCT-116; 22.4 µM (inactive) in the experiment on SF-295; 21.6 µM (inactive) in the experiment with HCC 2998; 28.2 µM (inactive) with K562. The GI50 in the experiment with SK-MEL-5 was 14.9 µM (inactive); in the experiment with A498 it was 25.6 µM (inactive); in the experiment with SK-MEL-28 it was 18.5 µM (inactive); with NCI-H460, 20.1 µM (inactive); with NCI-H226, 20.4 µM (inactive); with UO-31 it was 20.7 µM (inactive). The same compound showed a GI50 in the experiment on HCT-15 of 5.11 µM.

With `CON1C(=O)C2(CCCCC2)C(=O)C12C=CC(C)CC2` (stereo not given), the GI50 was > 100 µM (inactive) in the experiment with IGROV-1; > 100 µM (inactive) with SF-539; > 100 µM (inactive) in the experiment on SF-295; > 100 µM (inactive) in the experiment on HCC 2998; 85.5 µM (inactive) in the experiment on K562; 38 µM (inactive) in the experiment on SK-MEL-5. Besides, the GI50 is > 100 µM (inactive) in the experiment on A498; > 100 µM (inactive) in the experiment on SK-MEL-28; > 100 µM (inactive) in the experiment on NCI-H460; 76.6 µM (inactive) in the experiment with NCI-H226; 47.4 µM (inactive) with UO-31; more than 100 µM with HCT-15.

Consider `COC12CC(O)=C(C(C)=O)C(=O)C1(C)c1c(OC(C)=O)c(C)c(O)c(C(C)=O)c1O2` (stereo not given), for which the GI50 is 7.89 µM (inactive) in the experiment on IGROV-1; 21.6 µM (inactive) with SF-539; 21 µM (inactive) with HCT-116; 8.09 µM (inactive) with SF-295; 18.3 µM (inactive) in the experiment with HCC 2998; 16.9 µM (inactive) with K562. For the same compound, the GI50 is 17.3 µM (inactive) with A498; 16 µM (inactive) with SK-MEL-28; 13.2 µM (inactive) in the experiment on NCI-H460; 13.8 µM (inactive) in the experiment with NCI-H226; 4.35 µM (inactive) with UO-31; 13.6 µM in the experiment with HCT-15.

For the compound `CCCCCCCCCCCC(=O)OCC1OC(n2cc(F)c(=O)[nH]c2=O)C(N)C(O)C1O` (stereo not given), the GI50 is > 100 µM (inactive) with IGROV-1; > 100 µM (inactive) with SF-539; 88.1 µM (inactive) with HCT-116; > 100 µM (inactive) in the experiment with SF-295; > 100 µM (inactive) in the experiment on HCC 2998; 32.2 µM (inactive) with K562. Further, the GI50 with SK-MEL-5 was > 100 µM (inactive); in the experiment on A498, > 100 µM (inactive); in the experiment with SK-MEL-28 it was > 100 µM (inactive); with NCI-H460, 78.9 µM (inactive); with NCI-H226 it was > 100 µM (inactive); in the experiment with UO-31, > 100 µM (inactive). Also, in the experiment with HCT-15, the GI50 was more than 100 µM.

Regarding `CC(C)(C)C1CCC2(CC1)c1[nH]c3ccccc3c1C1(CCC(C(C)(C)C)CC1)c1[nH]c3ccccc3c12` (stereo not given), the GI50 in the experiment with IGROV-1 was > 100 µM (inactive); in the experiment on SF-539, > 100 µM (inactive); in the experiment with HCT-116, 41.6 µM (inactive); in the experiment on SF-295, > 100 µM (inactive); in the experiment with HCC 2998, > 100 µM (inactive); with K562, > 100 µM (inactive). In addition, the GI50 in the experiment with SK-MEL-5, in the experiment with A498, in the experiment with SK-MEL-28, in the experiment with NCI-H460, in the experiment on NCI-H226 and with UO-31 was > 100 µM (inactive) throughout. Besides, the GI50 in the experiment on HCT-15 is more than 100 µM.

Consider `O=c1ccn(C2(CO)C=C(CO)C(O)C2O)c(=O)[nH]1` (stereo not given), for which the GI50 in the experiment on IGROV-1, in the experiment with SF-539, in the experiment with HCT-116, in the experiment on HCC 2998, in the experiment with K562 and with SK-MEL-5 was > 25.7 µM (inactive) each time. The GI50 in the experiment with A498 is > 25.7 µM (inactive); in the experiment with SK-MEL-28 it was > 25.7 µM (inactive); in the experiment with NCI-H460 it was > 25.7 µM (inactive); in the experiment on NCI-H226, > 25.7 µM (inactive); with UO-31, > 25.7 µM (inactive); in the experiment with HCT-15 it was more than 25.7 µM.

In the case of `Oc1cc(-c2c[nH]c3ccccc23)nc2cc3c(cc12)OCO3`, the GI50 in the experiment with IGROV-1 is 83.2 µM (inactive); in the experiment on SF-539, > 100 µM (inactive); in the experiment on HCT-116 it was > 100 µM (inactive); in the experiment with SF-295 it was 92.3 µM (inactive); with HCC 2998 it was > 100 µM (inactive); with K562 it was > 100 µM (inactive). In addition, the GI50 in the experiment with SK-MEL-5, in the experiment with A498, with SK-MEL-28, in the experiment with NCI-H460, in the experiment with NCI-H226 and with UO-31 was > 100 µM (inactive) throughout. In the experiment on HCT-15, this compound yielded a GI50 of more than 100 µM.
